{
  "source": "paper PMC7459852",
  "about": "“Identification of 6-(piperazin-1-yl)-1,3,5-triazine as a chemical scaffold with broad anti-schistosomal activities” (Wellcome Open Research, 2020)",
  "key": {"Schistosoma mansoni [1]": {"tested_on": "Schistosoma mansoni", "parameters": "method as in PMID 24037106", "settings": "cited from earlier work"}, "Schistosoma mansoni [2]": {"tested_on": "Schistosoma mansoni", "parameters": "method as in PMID 24037106", "settings": "cited from earlier work", "remark": "listed apart in the source"}, "S. mansoni schistosomula": {"tested_on": "S. mansoni schistosomula", "assay": "Schistosomula screens (Roboworm, phenotype and motility)", "assay_type": "cell-based, Schistosoma mansoni", "settings": "72 h; for anti-schistosomula activity (hit on phenotype and motility): 50 µM; for pEC50: Schistosoma mansoni, dose response titrations (10 - 0.625 µM)", "experimental": "Anthelmintic activity on the schistosomula stage of S. mansoni was evaluated using Roboworm, an integrated high-throughput, high content image analysis platform originally developed by Paveley et al. and subsequently used by our research group as previously described, [28], [50], [51]. Alternatively, the computer application Worminator can be used to assess motion of microscopic parasites such as the schistosomula stage of S. mansoni. Compounds (as single concentration or two-fold titrations) were prepared for screening in a 384-well plate (PerkinElmer, MA, USA), where solutions (1.6 mM, 0.5 μl) were wet stamped using the Biomek NX ^P liquid handling platform into Basch medium (20 μl). Negative (0.625% DMSO) and positive (Auranofin - AUR - at 10 µM final concentration in 0.625% DMSO) control wells were similarly prepared. Mechanically transformed schistosomula (about 120 parasites in 60 μl of Basch medium) were distributed into each treated well using a WellMate (Thermo Scientific, Loughborough, UK). Schistosomula/compound co-cultures were then incubated at 37°C for 72 h in a humidified atmosphere containing 5% CO 2. At 72 h, parasite/compound co-cultures were resuspended and tissue culture plates were imaged under the same conditions (37°C for 72 h in a humidified atmosphere containing 5% CO 2) using an ImageXpressXL high content imager (Molecular Devices, UK) with subsequent images processed for phenotype and motility as previously reported. Plate analysis returned a phenotype and motility score for each well and any scores below -0.15 and -0.35 (defined threshold anti-schistosomula values for phenotype and motility scores, respectively) defined a condition displaying anti-schistosomula activity. Compound screens were assessed based on the Z´ values (derived from the means and standard deviations of positive and negative controls) and those equal to or above 0.3 for both phenotype and motility were considered successful.\nPhenotype and motility scores of each titration were used to generate dose response curves in GraphPad Prism 7.02 based on the corrected average score of the three replicates for each data point."}, "S. mansoni adult worms": {"tested_on": "S. mansoni adult worms", "assay": "Adult worm screens (WormassayGP2 motility, egg count)", "assay_type": "cell-based, Schistosoma mansoni", "settings": "72 h; for adult worm motility and oviposition: 6.25 µM, compared to compound 7; for adult worm egg production / adult worm motility compared to compound 7: 12.5 µM", "experimental": "For compound screening, adult worms (three worm pairs/well for compound 7 and the hit compounds of set two; one worm pair/well for the hit compounds of set three) were transferred into wells of a 48-well tissue culture plate containing 1 ml of adult worm media. Adult worms were treated with compounds previously identified as hits at 10 µM on 72 h cultured schistosomula. Worms were dosed with an appropriate volume of 10 mM stock solution of each compound (in DMSO) to have a concentration range of 50 – 6.25 µM (up to 0.5% DMSO, primary screen of compound 7). Secondary screens were performed on the structural analogues of compound 7 (only the schistosomula hits at 10 µM) at a single concentration (12.5 µM) and compared to the same concentration of the parental compound (included in the screen as reference). DMSO (0.5%) and praziquantel (10 µM in 0.5% DMSO) were also included as negative and positive control treatments (both primary and secondary screens). Treated adult worms were incubated for 72 h in a humidified environment at 5% CO 2 at 37°C. Parasite motility after drug treatment was assessed by a digital image processing-based system (WormassayGP2, see Software availability) modified after Wormassay, [56], [57]. Egg production was assessed according to the methodology described by Edwards et al.."}, "S. mansoni miracidia": {"tested_on": "S. mansoni miracidia", "assay": "Miracidia to sporocyst transformation screens", "assay_type": "cell-based, Schistosoma mansoni", "settings": "10 µM, 48 h", "experimental": "Following hatching of S. mansoni eggs, miracidia were incubated on ice for 15 min and then centrifuged at 700 x g for 5 min at 4°C. The miracidia pellet was then re-suspended in 5 ml of Chernin's balanced salt solution (CBSS), subjected to pelleting and two subsequent washes (all at 700 x g for 5 min at 4°C). Afterwards, the supernatant was carefully removed with a serological pipette and the miracidia-enriched pellet was resuspended with CBSS supplemented with 1 mg/ml each of glucose and trehalose and 500 µl of Penicillin-Streptomycin (containing 10,000 units penicillin and 10 mg streptomycin/ml, P4333, Sigma-Aldrich). In preparation for the screens, CBSS (250 µl) was aliquoted to each well of a 24-well plate followed by addition of each compound in DMSO (1 mM concentration in 1% DMSO) or DMSO alone (1%, negative control). Next, approximately 20-25 miracidia (in 250 µl of CBSS) were aliquoted to each well. […] Both preliminary and secondary screens were performed in duplicate on two separate occasions (two independent biological replicates). Miracidia were incubated for 48 h at 26°C before being evaluated using an Olympus inverted light microscope for morphological and behavioural changes differing from the control wells. Dead, partially transformed and fully transformed miracidia were enumerated in the DMSO control and the assay plates as previously described, [23], [59]. […] Absence of ciliated plates attached to the surface of the parasite and formation of sporocyst tegument defined the so-called “fully transformed” parasites."}, "[3]": {"assay": "MTT cytotoxicity assay on HepG2 cells", "assay_type": "cell-based, Human", "settings": "human, HepG2 cells, MTT, 24 h; three dose response titrations (200 - 1 µM)", "experimental": "(§1) Compound cytotoxicity on Human Hepatocyte Carcinoma (HepG2) cells (85011430, Sigma Aldrich) was elucidated by the MTT (3-(4,5-dimethylthiazol-2-yl)-2,5-diphenyltetrazolium bromide) tetrazolium reduction assay as previously described, [28], [50]. Briefly, HepG2 cells were seeded at a density of 20,000 per well in 96-well black, clear bottom falcon plate in modified BME medium (50 μl; containing 1% antibiotic/mycotic (Sigma-Aldrich, Gillingham, UK), 1% 200 mM L-glutammine (Gibco, Paisley, UK), 1% MEM non-essential amino acid solution (Gibco, Paisley, UK), and 10% fetal bovine serum (Gibco, Paisley, UK)). HepG2 plates seeded for cytotoxicity screens were treated with compounds 24 h post-seeding. Each compound was tested at 200, 100, 75, 50, 20, 10 and 1 µM; each concentration was assayed in triplicate. Blank wells (no cells), as well as positive (1% v/v Triton X-100, X100, Sigma-Aldrich) and negative (1.25% v/v DMSO or media only) controls, were included in each plate. After addition of compounds, each plate was then incubated for a further 20 h before application of MTT reagent for assessment of compound cytotoxicity (4 h incubation with MTT for a total 24 h cell-drug incubation). The absorbance reading at 570 nm was measured with a POLARstar Omega (BMG Labtech, UK) microtiter plate reader. Dose response curves were generated in GraphPad Prism 7.02 based on the corrected average absorbance of the three replicates for each concentration point."}, "HepG2 cells": {"tested_on": "HepG2 cells", "assay": "MTT cytotoxicity assay on HepG2 cells", "assay_type": "cell-based, Human", "settings": "for cytotoxicity on HepG2 cells (in words): dose response titration", "experimental": "as §1"}, "[4]": {"settings": "read-out: Schistosomula EC50 Motility"}, "[5]": {"settings": "read-out: Schistosomula EC50 Phenotype"}},
  "note": "pEC50: −log10 of the molar value. Where two headings read alike, the source gives them in different places.",
  "data": [
    {"smiles": "Cc1ccc(NC(=O)c2ccc(CN3CCN(C)CC3)cc2)cc1Nc1nccc(-c2cccnc2)n1", "note": "[Imatinib]", "values": [
      {"measurement": "in vitro anti-schistosomal activity", "setting": "Schistosoma mansoni [1]", "value": "potent in vitro anti-schistosomal activity"},
      {"measurement": "in vivo anti-schistosomal activity", "setting": "Schistosoma mansoni [2]", "value": "lost in vivo"}
    ]},
    {"smiles": "Cc1ccc(Nc2nc(C3CCCCC3)nc(N3CCNCC3)n2)cc1", "note": "[Compound 23]", "values": [
      {"measurement": "anti-schistosomula activity (hit on phenotype and motility)", "setting": "S. mansoni schistosomula", "value": "active at the highest concentration"},
      {"measurement": "pEC50", "setting": "S. mansoni schistosomula; [4]", "value": 5.55},
      {"measurement": "pEC50", "setting": "S. mansoni schistosomula; [5]", "value": 5.51},
      {"measurement": "adult worm motility and oviposition", "setting": "S. mansoni adult worms", "value": "strong anthelmintic activities"},
      {"measurement": "adult worm egg production", "setting": "S. mansoni adult worms", "value": "greater potency than compound 7"},
      {"measurement": "adult worm motility compared to compound 7", "setting": "S. mansoni adult worms", "value": "greater potency than compound 7"},
      {"measurement": "effect on miracidia", "setting": "S. mansoni miracidia", "value": "readily killed miracidia"},
      {"measurement": "CC50 at 24 h", "setting": "[3]", "value": "< 10", "unit": "µM"},
      {"measurement": "CC50", "setting": "HepG2 cells; MTT, 24 h, three dose response titrations (200 - 1 µM)", "value": 6.73, "unit": "µM"},
      {"measurement": "cytotoxicity on HepG2 cells (in words)", "setting": "HepG2 cells", "value": "showed the highest toxicity"}
    ]},
    {"smiles": "CC(=O)Nc1ccc(S(=O)(=O)N2CCN(c3nc(N4CCCCC4)nc(N4CCCCC4)n3)CC2)cc1", "note": "[Compound 20]", "values": [
      {"measurement": "anti-schistosomula activity (hit on phenotype and motility)", "setting": "S. mansoni schistosomula", "value": "active at the highest concentration"},
      {"measurement": "pEC50", "setting": "S. mansoni schistosomula; [4]", "value": 5.31},
      {"measurement": "pEC50", "setting": "S. mansoni schistosomula; [5]", "value": 5.46},
      {"measurement": "adult worm motility and oviposition", "setting": "S. mansoni adult worms", "value": "strong anthelmintic activities"},
      {"measurement": "adult worm egg production", "setting": "S. mansoni adult worms", "value": "greater potency than compound 7"},
      {"measurement": "adult worm motility compared to compound 7", "setting": "S. mansoni adult worms", "value": "greater potency than compound 7"},
      {"measurement": "effect on miracidia", "setting": "S. mansoni miracidia", "value": "readily killed miracidia"},
      {"measurement": "CC50 at 24 h", "setting": "[3]", "value": "> 100", "unit": "µM"},
      {"measurement": "cytotoxicity on HepG2 cells (in words)", "setting": "HepG2 cells", "value": "not toxic to this cell line, except for concentrations above 100 µM"}
    ]},
    {"smiles": "Cc1ccc(Nc2nc(N3CCNCC3)nc(N3CCN(c4ccccc4)CC3)n2)cc1", "note": "[Compound 24]", "values": [
      {"measurement": "anti-schistosomula activity (hit on phenotype and motility)", "setting": "S. mansoni schistosomula", "value": "active at the highest concentration"},
      {"measurement": "pEC50", "setting": "S. mansoni schistosomula; [4]", "value": 5.74},
      {"measurement": "pEC50", "setting": "S. mansoni schistosomula; [5]", "value": 5.80},
      {"measurement": "adult worm motility and oviposition", "setting": "S. mansoni adult worms", "value": "the most potent"},
      {"measurement": "adult worm egg production", "setting": "S. mansoni adult worms", "value": "greater potency than compound 7"},
      {"measurement": "adult worm motility compared to compound 7", "setting": "S. mansoni adult worms", "value": "greater potency than compound 7"},
      {"measurement": "effect on miracidia", "setting": "S. mansoni miracidia", "value": "readily killed miracidia"},
      {"measurement": "cytotoxicity on HepG2 cells (in words)", "setting": "HepG2 cells", "value": "showed the highest toxicity"}
    ]}
  ]
}
